Assay [1] in a line: Fluorescence ANTS/DPX vesicle leakage assay in POPC/POPG (3:1). The settings on record: ANTS/DPX, POPC/POPG (3:1) 100 nm vesicles, P/L about 1:160 per peptide, mixtures 1:1, 10 mM HEPES pH 7.5, 155 mM NaCl, 30 °C, 600 s, % of Triton-X-100 leakage, fluorescence, mean of n = 3. How it is done: The synergy was also investigated by a fluorescence ANTS/DPX leakage assay[24],[27],[30]. As described in the Methods section, leakage from POPC/POPG (3:1) vesicles was measured for 10 minutes after the addition of vesicles to a peptide solution. Leakage is expressed as percentage of the full leakage, which was obtained after addition of detergent. A synergy factor was defined to describe the enhancement of leakage of the mixture compared to the sum of the extent of leakage for each component. […] In general a synergy factor above 2 indicated synergy. […] In the leakage assay, this pore formation can be studied under more controlled conditions. Here we use two lipid compositions for the vesicles, which are mimicking bacterial membranes.
(§1) Leakage of small unilamellar vesicles induced by the peptides was studied using a standard fluorescence assay.
(§2) The appropriate lipids for each experiment were dissolved in CHCl3, together with 0.02 mol-% Rhodamine-PE (Rh-PE). […] This stock suspension was subjected to 10 freeze-thaw cycles and then frozen. Appropriate aliquots of the stock lipid suspension were unfrozen each day and extruded (41 times) through polycarbonate membranes with 100 nm pore size, and stored at room temperature overnight. The fluorophore and quencher outside the vesicles were removed by size exclusion chromatography using spin-columns (Pierce centrifuge column, 2 ml, Life Technologies GmbH, Darmstadt, Germany) filled with Sephacryl 100-HR (2 min, 1500 × g). For elution, a 10 mM HEPES buffer (pH 7.5) was used, containing 155 mM NaCl to balance the osmolarity. After extrusion and removal of the external dye and quencher, the lipid concentration usually decreases. Therefore, before each set of measurements a rhodamine spectrum was recorded to determine the actual concentration of lipids, which was referenced to a spectrum taken of vesicles made by sonification without any subsequent treatment.
(§3) Fluorescence experiments were performed on a FluoroMax2 spectrofluorimeter (HORIBA Jobin Yvon, Unterhaching, Germany) equipped with a thermostated sample holder and magnetic stirrer, using an excitation wavelength of 355 nm, an emission wavelength of 508 nm, and slit widths of 5 nm. The peptide solutions were placed in elution buffer in a 1 cm standard cuvette at 30 °C. 100 s after the start of the measurement lipid vesicles were added, and the intensity of the fluorescence at 508 nm was recorded. The leakage was measured during 600 s after addition of vesicles, and the measurement was terminated after addition of Triton-X-100 (0.25% v/v), which dissolved the vesicles, and yielded 100% leakage. To determine the background signal of the vesicles themselves, several blanks were recorded per measurement set. From the leakage values of the peptides alone and of the mixture of two peptides a synergy factor SF was calculated:3 SF=L(A+B)/[L(A)+L(B)] […] Measurements were repeated three times and average values and standard deviations calculated for the leakage and the synergy factors. An average SF ≥ 2 was taken to indicate synergy.

A short description of assay [2]: Fluorescence ANTS/DPX vesicle leakage assay in POPE/POPG/TOCL (72:23:5). The following applies: POPE/POPG/TOCL (72:23:5) 100 nm vesicles, P/L ≈ 1:30, mixtures 1:1, 10 mM HEPES pH 7.5, 155 mM NaCl, 30 °C, 600 s, % of Triton-X-100 leakage, mean of n = 3.
Source text: It could be argued that POPC/POPG (3:1) is not the most appropriate model system to describe a bacterial membrane, which rarely contains PC lipids. We therefore also performed leakage in another lipid system, POPE/POPG/TOCL (72:23:5), which is a good model of E. coli membranes[45],[69],[70]. […] For all of the other mutants discussed below, leakage was also studied both in POPC/POPG as well as POPE/POPG/TOCL, but since the results (synergy or no synergy) were in all cases the same, the latter data will not be presented in the text. All leakage data in POPE/POPG/TOCL (72:23:5) for charge mutants are summarized in Supplementary Table S4.
as §1, §2
as §3, with “SF=L(A+B)/[L(A)+L(B)] Here, L(A) is the leakage found with peptide A alone, L(B) is the leakage found with peptide B alone, and L(A + B) is the leakage found with the mixture of peptides A and B. In all cases the P/L was the same for both peptides, alone and in the mixture, so that in the mixture the total P/L was twice that of the individual peptide measurements.” for “SF=L(A+B)/[L(A)+L(B)]”

No end group written: not given here.

With “KIAGKAGAIAGKIAKIALKIA-NH2 (also: 15N-labeled Ala10) [MtP-a4, MSI-103 mutant with MtP-A3 mutations plus G18L]”, the “Leakage, mean value” in assay [1] (Table S11 series (MSI-to-PGLa mutants)) came out at 2.5%; in assay [2] (Table S12 series (MSI-to-PGLa mutants)), 2.6%.
Consider “GMASKAAAIAGKIGKVALKAL-NH2 (also: 15N-labeled Ala10) [PGLa-GS1, PGLa glycine-shift mutant with GxxG motif]”, for which the “Leakage, mean value” was 1.9% in assay [1] (Table S15 series (Gly mutants)) and 2.7% in assay [2] (Table S16 series (Gly mutants)).
Turning to “GMASKAGAIA IKIAKVALKAL-NH2 [PGLa-G11I, PGLa glycine mutant G11I]”, the “Leakage, mean value” in assay [1] (Table S15 series (Gly mutants)) is 11.0%; in assay [2] (Table S16 series (Gly mutants)), 11.4%.

The values are drawn from publication PMC5640672, “Molecular mechanism of synergy between the antimicrobial peptides PGLa and magainin 2” (Scientific Reports, 2017).
